Reference: patent publication US11980209B2, “Consumables” (GIVAUDAN SA, priority 2007, dated 2024)
“Also recorded” adds a separate entry of the source.

Assays:
Format in all cases: in vivo, human
[1] = tested on: perceived sweetness (one panelist trained for sweetness detection); assay: Paired comparison of 20-100 ppm trilobatin versus 0-1% sucrose (Example 1a)
Experimental: Trilobatin (20 ppm, 60 ppm, 100 ppm) in water samples were evaluated for isointensity to sucrose solutions in a concentration of 0, 0.5 and 1% sucrose using a paired comparison method. Samples were paired and tasted left to right with rinsing (water) in between, by one panelist trained for sweetness detection.
The trilobatin samples were compared to either 0%, 0.5%, or 1% sucrose solutions.

[2] = tested on: perceived sweet taste (sweet sensitive panelists); assay: Ranking test, isointensity of 200 ppm trilobatin in water (Example 1c)
Experimental: The sensory evaluation was conducted using the method described in example 1b. The panels consisted of 7 sweet sensitive panelists. Panelists were presented with 0.5%, 1%, and 1.5% sucrose solutions in water and a fourth sample of 200 ppm trilobatin in water. Panelists were asked to rank the samples from low to high with respect to perceived sweet taste. 200 ppm trilobatin in water was determined to be isosweet to 1% sucrose.
The sweetness detection threshold for individuals within the average consumer group varies from below 0.4% to 0.7% sucrose or more. All examples were performed with sweet sensitive panelists able to detect at least 0.5% sucrose or less. Extrapolating from examples 1 a, b, and c, the concentration detectable by the average consumer will therefore be higher, and the average concentration near the sweetness detection threshold of the average consumer will be about 100 to 200 ppm.

[3] = tested on: perceived sweet taste (sweet sensitive panelists); assay: Ranking test with R-index, isointensity of 100 ppm trilobatin in 7% sucrose solution (Example 2a); settings: for R-index: critical values 35.39-64.61%
Experimental: The sensory evaluation was conducted using a ranking method. Samples at ambient temperature were randomly presented in 15 ml blind aliquots (unidentifiable by panelists). Panels consisted of 15 sweet sensitive subjects and samples were presented in 2 replications over 1 session. After tasting each sample, the mouth was rinsed thoroughly with water at ambient temperature prior to tasting the next sample. Panelists were presented with 7%, 8%, 9%, 10% and 11% sucrose solutions in water and a sixth sample of 100 ppm trilobatin in 7% sucrose. Subjects were asked to rank the samples from low to high with respect to perceived sweet taste. R-indices were calculated for 100 ppm trilobatin in 7% sucrose versus either 7%, 8%, 9%, 10% or 11% sucrose.

[4] = tested on: perceived sweet taste (sweet sensitive panelists); assay: Direct comparison of 100 ppm trilobatin in 7% sucrose with 7.5% sucrose solution (Example 2a); settings: all of 8 sweet sensitive panelists
[5] = tested on: perceived sweetness (sweet sensitive panelists); assay: Sweetness detection threshold of trilobatin in yoghurt (Example 8); settings: for Sweetness of 500 ppm trilobatin sample: plain nonfat yoghurt
Experimental: (§1) Trilobatin was tested by 6 sweet sensitive panelists in plain nonfat yoghurt.
Yoghurt samples were 500 ppm trilobatin, 1% sucrose, and 2% sucrose. Panelists compared the 500 ppm trilobatin sample to each sucrose sample and compared the sweetness, the results are indicated in the table below.

[6] = tested on: perceived sweetness (sweet sensitive panelists); assay: Sweetness enhancement by trilobatin in yoghurt (Example 9)
Experimental: as §1
Samples of 62.5 ppm, 125 ppm, and 500 ppm trilobatin in yoghurt sweetened with 5% sucrose were compared by panelists to a 5% sucrose sweetened yoghurt and a 7% sucrose sweetened yoghurt sample; the results are indicated in the table below.

[7] = tested on: perceived sweetness (panelists); assay: Sweetness detection threshold of trilobatin in milk (Example 10)
Experimental: Trilobatin was tested by 6 panelists in whole milk.
Milk samples were 62.5 ppm, 125 ppm, 250 ppm, 500 ppm trilobatin; 1% sucrose, and 2% sucrose.

[8] = tested on: perceived sweetness (sweet sensitive panelists); assay: Sweetness enhancement by trilobatin in cereals (Example 11); settings: tested in whole milk, vs cereal with 1% added sucrose
Experimental: Trilobatin was tested by 4 sweet sensitive panelists in cereal samples (cereals from Kix, General Mills; USA). The cereal is a comparatively low sugar product and contains 3 g sucrose per 30 g cereal. Panelists tested the samples in whole milk. To the cereal samples, sucrose was topically added by spraying the corresponding amount of a 10% sucrose solution in water to give 1%. The samples were baked at 250° C. for about 15 minutes in a convection oven to dry/remove the water. Similarly, trilobatin was applied to cereal samples as a 0.1% solution in 50/50 w/w ethanol/water to give various trilobatin concentrations (100 ppm, 200 ppm, 400 ppm).

[9] = tested on: perceived sweetness (sweet sensitive panelists); assay: Ranking test with R-index, sweetness of trilobatin (750 ppm) in yogurt (Example 13); settings: for R-index: critical value 37.4 to 62.6%
Experimental: The sucrose concentration isointense to 750 ppm trilobatin in a plain yogurt base was determined as follows.
Samples contained a plain yogurt base with 750 ppm trilobatin, or the same plain yogurt base with sucrose in various concentrations (0%, 0.5%, 1.0%, 1.5%, and 2.0% sucrose).
30 ml of each yogurt sample was served cold, in random order, to 21 sweet sensitive panelists. In two replications over 1 session, panelists were asked to rank the samples from least sweet to most sweet. The data was subjected to an R-index analysis.

[10] = 100 ppm trilobatin in 7% sucrose
[11] = 62.5 ppm trilobatin in yoghurt sweetened with 5% sucrose
[12] = 125 ppm trilobatin in yoghurt sweetened with 5% sucrose
[13] = 500 ppm trilobatin in 5% sucrose yoghurt
[14] = 750 ppm TL in plain yogurt vs 0% sucrose yogurt
[15] = 750 ppm TL in plain yogurt vs 0.5% sucrose yogurt
[16] = 750 ppm TL in plain yogurt vs 1% sucrose yogurt
[17] = 750 ppm TL in plain yogurt vs 1.5% sucrose yogurt
[18] = 750 ppm TL in plain yogurt vs 2% sucrose yogurt

Structure (SMILES): O=C(CCc1ccc(O)cc1)c1c(O)cc(O[C@@H]2O[C@H](CO)[C@@H](O)[C@H](O)[C@H]2O)cc1O [trilobatin, 1-[4-(beta-D-glucopyranosyloxy)-2,6-dihydroxyphenyl]-3-(4-hydroxyphenyl)-1-propanone]
- Taste of trilobatin samples compared to sucrose ([1]; 20 ppm trilobatin in water vs 0% sucrose): isosweet
- Taste of trilobatin samples compared to sucrose ([1]; 20 ppm trilobatin in water vs 0.5% sucrose): notably less sweet
- isointensity to sucrose, by interpolation ([1]; 60 ppm trilobatin in water): 0.25 % sucrose
- Taste of trilobatin samples compared to sucrose ([1]; 60 ppm trilobatin in water vs 0% sucrose): weakly sweeter
- Taste of trilobatin samples compared to sucrose ([1]; 60 ppm trilobatin in water vs 0.5% sucrose): less sweet
- Taste of trilobatin samples compared to sucrose ([1]; 100 ppm trilobatin in water vs 0% sucrose): sweeter
- Taste of trilobatin samples compared to sucrose ([1]; 100 ppm trilobatin in water vs 0.5% sucrose): isosweet
- Taste of trilobatin samples compared to sucrose ([1]; 100 ppm trilobatin in water vs 1% sucrose): less sweet
- isointensity to sucrose ([2]; 200 ppm trilobatin in water): 1 % sucrose
- average concentration near the sweetness detection threshold of the average consumer ([2]; extrapolating from examples 1a, b and c): 100 to 200 ppm
- added sucrose sweetness intensity [3, 10]: 1 ° Brix
- expected isointensity to sucrose assuming a merely additive effect [3, 10]: 7.5 % sucrose
- isointensity to sucrose [3, 10]: 8 % sucrose
- R-index ([3]; 100 ppm trilobatin in 7% sucrose vs 7% sucrose): 79%
- R-index ([3]; 100 ppm trilobatin in 7% sucrose vs 8% sucrose): 38%
- R-index ([3]; 100 ppm trilobatin in 7% sucrose vs 9% sucrose): 12%
- R-index ([3]; 100 ppm trilobatin in 7% sucrose vs 10% sucrose): 1%
- R-index ([3]; 100 ppm trilobatin in 7% sucrose vs 11% sucrose): 0%
- sample sweetness (7% sucrose + 100 ppm trilobatin) ([3]; vs 7% sucrose solution): Sweeter
- sample sweetness (7% sucrose + 100 ppm trilobatin) ([3]; vs 8% sucrose solution): Isosweet
- sample sweetness (7% sucrose + 100 ppm trilobatin) ([3]; vs 9% sucrose solution): Less sweet
- sample sweetness (7% sucrose + 100 ppm trilobatin) ([3]; vs 10% sucrose solution): Less sweet
- sample sweetness (7% sucrose + 100 ppm trilobatin) ([3]; vs 11% sucrose solution): Less sweet
- taste in direct comparison with 7.5% sucrose solution [4]: significantly sweeter
- own sweetness equivalent to sucrose ([5]; 500 ppm trilobatin in yoghurt): 1 % sucrose
- Sweetness of 500 ppm trilobatin sample ([5]; vs 1% sucrose yoghurt sample): slightly less sweet/similarly sweet
- Sweetness of 500 ppm trilobatin sample ([5]; vs 2% sucrose yoghurt sample): less sweet
- sweetness trilobatin compared to 5% sucrose sample [6, 11]: + sweeter
- sweetness trilobatin compared to 7% sucrose sample [6, 11]: less sweet
- sweetness trilobatin compared to 5% sucrose sample [6, 12]: ++ sweeter
- sweetness trilobatin compared to 7% sucrose sample [6, 12]: less sweet
- sucrose level that the 5% sucrose sample tastes like [6, 13]: 7%
- sweetness enhancement effect equivalent to added sucrose [6, 13]: 1 % sucrose
- Trilobatin sample sweetness compared to sucrose ([7]; 62.5 ppm in whole milk, 6/6 panelists): below 1% sucrose (6/6)
- Trilobatin sample sweetness compared to sucrose ([7]; 125 ppm in whole milk, 6/6 panelists): below 1% sucrose (6/6)
- Trilobatin sample sweetness compared to sucrose ([7]; 250 ppm in whole milk, 6/6 panelists): below 1% sucrose (6/6)
- Trilobatin sample sweetness compared to sucrose ([7]; 500 ppm in whole milk, 3/6 panelists (below)): below 1% sucrose (3/6)
- Sweetness trilobatin sample ([8]; 100 ppm trilobatin on cereal): less sweet than 1% sucrose
- Sweetness trilobatin sample ([8]; 200 ppm trilobatin on cereal): sweeter than 1% sucrose
- Sweetness trilobatin sample ([8]; 400 ppm trilobatin on cereal): much sweeter than 1% sucrose,; also recorded: too sweet
- sweetness TL sample [9, 14]: sweeter
- R-index [9, 14]: 82.6%
- sweetness TL sample [9, 15]: isosweet
- R-index [9, 15]: 58.5%
- sweetness TL sample [9, 16]: less
- R-index [9, 16]: 14.7%
- sweetness TL sample [9, 17]: less
- R-index [9, 17]: 4.4%
- sweetness TL sample [9, 18]: less
- R-index [9, 18]: 3.3%
- isointensity to sucrose ([9]; 750 ppm trilobatin in plain yogurt): 0.5 % sucrose
